Laboratory results: patent publication US20250136577A1, “HETEROCYCLIC DERIVATIVES AS MALT1 INHIBITORS” (C4X Discovery Limited, priority 2022, published 2025)

Assays:
[1] = target: FL hMALT1 enzyme (Homo sapiens (Human), UniProt Q9UDY8); test: MALT1 Protease Assay 2 (Assay 2), higher sensitivity, cleavage of fluorogenic tetrapeptide substrate; type: biochemical; conditions: FL hMALT1 1-10 nM, Ac-LVSR-AMC 100 μM, 0.7 M sodium citrate, 30 min preincubation, 60 min read
Protocol: MALT1 Protease Assay 2 (Assay 2)
(§1) MALT1 protease activity was assessed in vitro by measuring the cleavage of a fluorogenic tetrapeptide substrate.
For a higher sensitivity assay, commercially available FL hMALT1 enzyme (Abcam, 1-10 nM) was incubated with substrate (Ac-LVSR-AMC, 100 μM) in reaction buffer comprising 50 mM HEPES (pH7.0), 25 mM KCl, 0.1% (v/v) CHAPS, 1 mM TCEP and 0.7 M sodium citrate.
(§2) Test compounds dissolved in DMSO were dispensed into assay plates (384-well, black, shallow ProxiPlates). 7 μl enzyme solution was added and incubated at room temperature for 30 minutes to allow compound binding to occur. 2 μl substrate solution was then added and the fluorescence (excitation 360 nm, emission 460 nm) read every 15 minutes using a suitable plate reader. Final assay DMSO concentration was 1%. Linearity over 60 minutes was confirmed, and assay signal was calculated by subtracting raw counts at time 0 from those at 60 minutes. % inhibition was calculated for each well, using no enzyme for 100% inhibition controls and no compound for 0% inhibition controls. IC50 values were calculated using GraphPad Prism using a 4-parameter non-linear regression curve fit.

[2] = target: MALT1-GS-Ub (6-His-hMALT-1 residues 339-715 fused to ubiquitin) (Homo sapiens (Human), UniProt Q9UDY8); test: MALT1 Protease Assay 1 (Assay 1), cleavage of fluorogenic tetrapeptide substrate; type: biochemical; conditions: MALT1-GS-Ub 300-600 nM, Ac-LVSR-AMC 100 μM, 30 min preincubation, 60 min read
Protocol: MALT1 Protease Assay 1 (Assay 1)
as §1
A protein (MALT1-GS-Ub) comprising 6-His-hMALT-1 (residues 339-715), fused to ubiquitin with an 8× GGS linker, was expressed in E. coli, and purified using chitin resin to remove contaminants followed by affinity chromatography purification and size-exclusion chromatography, according to standard protocols.
Briefly, MALT1-GS-Ub (300-600 nM) was incubated with substrate (Ac-LVSR-AMC, 100 μM) in reaction buffer comprising 50 mM HEPES (pH7.0), 25 mM KCl, 0.1% (v/v) CHAPS and 1 mM TCEP.
as §2

Chain of FL hMALT1 enzyme (Q9UDY8 whole entry): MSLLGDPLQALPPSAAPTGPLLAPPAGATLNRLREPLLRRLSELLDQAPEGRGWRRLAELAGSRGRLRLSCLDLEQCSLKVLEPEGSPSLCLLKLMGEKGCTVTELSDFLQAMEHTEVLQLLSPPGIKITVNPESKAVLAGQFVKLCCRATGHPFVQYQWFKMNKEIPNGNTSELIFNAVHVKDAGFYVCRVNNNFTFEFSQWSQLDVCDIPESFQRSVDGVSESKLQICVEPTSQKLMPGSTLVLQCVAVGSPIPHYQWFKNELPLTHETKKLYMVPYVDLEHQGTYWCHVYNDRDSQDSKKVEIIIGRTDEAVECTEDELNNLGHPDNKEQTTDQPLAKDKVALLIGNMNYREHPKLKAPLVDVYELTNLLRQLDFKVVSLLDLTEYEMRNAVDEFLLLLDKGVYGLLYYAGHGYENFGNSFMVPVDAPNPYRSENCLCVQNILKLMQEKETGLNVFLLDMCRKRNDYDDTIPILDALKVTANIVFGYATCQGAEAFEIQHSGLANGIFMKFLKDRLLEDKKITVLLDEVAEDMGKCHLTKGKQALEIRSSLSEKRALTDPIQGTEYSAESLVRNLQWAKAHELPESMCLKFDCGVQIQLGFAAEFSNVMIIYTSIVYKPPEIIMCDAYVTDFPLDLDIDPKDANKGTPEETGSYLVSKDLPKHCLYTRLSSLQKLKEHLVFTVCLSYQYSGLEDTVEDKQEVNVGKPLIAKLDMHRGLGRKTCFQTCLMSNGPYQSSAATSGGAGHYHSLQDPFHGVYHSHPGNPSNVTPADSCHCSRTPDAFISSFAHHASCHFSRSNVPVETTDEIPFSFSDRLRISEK
Chain of MALT1-GS-Ub (6-His-hMALT-1 residues 339-715 fused to ubiquitin) (Q9UDY8 other isoform, or with tags, fused parts or gaps): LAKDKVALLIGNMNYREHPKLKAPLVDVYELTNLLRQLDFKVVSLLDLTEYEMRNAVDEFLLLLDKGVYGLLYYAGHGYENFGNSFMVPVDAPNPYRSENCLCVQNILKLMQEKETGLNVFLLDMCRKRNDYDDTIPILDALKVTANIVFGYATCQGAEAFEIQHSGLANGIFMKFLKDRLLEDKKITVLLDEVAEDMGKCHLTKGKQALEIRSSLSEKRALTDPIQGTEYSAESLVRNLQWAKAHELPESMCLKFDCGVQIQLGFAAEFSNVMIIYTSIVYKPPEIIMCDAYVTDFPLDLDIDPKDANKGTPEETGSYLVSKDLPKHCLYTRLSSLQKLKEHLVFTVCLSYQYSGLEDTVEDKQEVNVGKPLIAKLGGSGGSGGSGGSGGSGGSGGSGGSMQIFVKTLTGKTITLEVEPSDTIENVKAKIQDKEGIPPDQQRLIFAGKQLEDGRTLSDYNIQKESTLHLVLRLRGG

Compound | IC50 [1] | IC50 [2]
O=C(Nc1cnc(-n2nccn2)c(Cl)c1)N1CC(C(F)(F)F)Nc2c(Br)cncc21 (centres unmarked) [Example 37, 8-Bromo-N-(5-chloro-6-(2H-1,2,3-triazol-2-yl)pyridin-3-yl)-2-(trifluoromethyl)-2,3-dihydropyrido[3,4-b]pyrazine-4 (1H)-carboxamide] | 0.54 µM | 3.9 µM
CN1CCN(C(=O)Nc2cnc(-n3nccn3)c(Cl)c2)c2cccc(Br)c21 [Example 16, 5-Bromo-N-(5-chloro-6-(2H-1,2,3-triazol-2-yl)pyridin-3-yl)-4-methyl-3,4-dihydroquinoxaline-1 (2H)-carboxamide] | 0.9 µM | 2.5 µM
COc1cccc2c1CCCN2C(=O)Nc1cnc(-n2nccn2)c(Cl)c1 [Example 3, N-(5-Chloro-6-(2H-1,2,3-triazol-2-yl)pyridin-3-yl)-5-methoxy-3,4-dihydroquinoline-1 (2H)-carboxamide] | 0.61 µM | 3 µM
C[C@@H]1CN(C(=O)Nc2cnc(-n3nccn3)c(C(F)(F)F)c2)c2cccc(Br)c2[C@@H]1C (relative stereo) [Example 11, cis-N-(6-(2H-1,2,3-Triazol-2-yl)-5-(trifluoromethyl)pyridin-3-yl)-5-bromo-3,4-dimethyl-3,4-dihydroquinoline-1 (2H)-carboxamide] | 1.2 µM | 4.1 µM
O=C(Nc1cnc(-n2nccn2)c(Cl)c1)N1CCCc2c(C3CC3)cncc21 [Example 22, N-(5-Chloro-6-(2H-1,2,3-triazol-2-yl)pyridin-3-yl)-5-cyclopropyl-3,4-dihydro-1,7-naphthyridine-1 (2H)-carboxamide] | 4.7 µM | 4 µM
CC1(C)CN(C(=O)Nc2cnc(-n3nccn3)c(Cl)c2)c2cccc(Br)c2O1 [Example 13, 8-Bromo-N-(5-chloro-6-(2H-1,2,3-triazol-2-yl)pyridin-3-yl)-2,2-dimethyl-2,3-dihydro-4H-benzo[b][1,4]oxazine-4-carboxamide] | 1.3 µM | 1.3 µM
O=C(Nc1cnc(-n2nccn2)c(C(F)(F)F)c1)N1CCCc2c(-c3ccccc3)cccc21 [Example 12, N-(6-(2H-1,2,3-Triazol-2-yl)-5-(trifluoromethyl)pyridin-3-yl)-5-phenyl-3,4-dihydroquinoline-1 (2H)-carboxamide] | 0.65 µM | 2.3 µM
O=C(Nc1cnc(-n2nccn2)c(Cl)c1)N1C[C@@H]2CCCN2c2c(Br)cncc21 [Example 25, (S)-1-Bromo-N-(5-chloro-6-(2H-1,2,3-triazol-2-yl)pyridin-3-yl)-6a,7,8,9-tetrahydropyrido[3,4-e] pyrrolo[1,2-a]pyrazine-5 (6H)-carboxamide] | 0.23 µM | 1.06 µM
CC1(C)Cc2c(Br)cccc2N(C(=O)Nc2cnc(-n3nccn3)c(Cl)c2)C1 [Example 15, 5-Bromo-N-(5-chloro-6-(2H-1,2,3-triazol-2-yl)pyridin-3-yl)-3,3-dimethyl-3,4-dihydroquinoline-1 (2H)-carboxamide] | 0.44 µM | 1.3 µM
C#CC1CN(C(=O)Nc2cnc(-n3nccn3)c(Cl)c2)c2cccc(Br)c2O1 (centres unmarked) [Example 20, 8-Bromo-N-(5-chloro-6-(2H-1,2,3-triazol-2-yl)pyridin-3-yl)-2-ethynyl-2,3-dihydro-4H-benzo[b][1,4]oxazine-4-carboxamide] | 0.59 µM | 3.3 µM
CN1CCN(C(=O)Nc2cnc(-n3nccn3)c(Cl)c2)c2cncc(Br)c21 [Example 29, 8-Bromo-N-(5-chloro-6-(2H-1,2,3-triazol-2-yl)pyridin-3-yl)-1-methyl-2,3-dihydropyrido[3,4-b]pyrazine-4 (1H)-carboxamide] | > 3 µM | 3.8 µM
O=C(Nc1cnc(-n2nccn2)c(C(F)(F)F)c1)N1CCCc2c(-c3cccnc3)cccc21 [Example 8, N-(6-(2H-1,2,3-Triazol-2-yl)-5-(trifluoromethyl)pyridin-3-yl)-5-(pyridin-3-yl)-3,4-dihydroquinoline-1 (2H)-carboxamide] | > 10 µM | 9.8 µM
O=C(Nc1cnc(-n2nccn2)c(C(F)(F)F)c1)N1CCCc2c(-c3nccs3)cccc21 [Example 10, N-(6-(2H-1,2,3-Triazol-2-yl)-5-(trifluoromethyl)pyridin-3-yl)-5-(thiazol-2-yl)-3,4-dihydroquinoline-1 (2H)-carboxamide] | 1 µM | 1.5 µM
O=C(Nc1cnc(-n2nccn2)c(C(F)(F)F)c1)N1CCCc2c(-c3nncs3)cccc21 [Example 14, N-(6-(2H-1,2,3-triazol-2-yl)-5-(trifluoromethyl)pyridin-3-yl)-5-(1,3,4-thiadiazol-2-yl)-3,4-dihydroquinoline-1 (2H)-carboxamide] | 8.2 µM | 8.5 µM
O=C(Nc1cnc(-n2nccn2)c(Cl)c1)N1CC(C(F)(F)F)Oc2c(Br)cncc21 (single isomer, unassigned) [Example 39, 8-Bromo-N-(5-chloro-6-(2H-1,2,3-triazol-2-yl)pyridin-3-yl)-2-(trifluoromethyl)-2,3-dihydro-4H-pyrido[4,3-b][1,4]oxazine-4-carboxamide] | 1.2 µM | 5.8 µM
N#Cc1cccc2c1CCCN2C(=O)Nc1cnc(-n2nccn2)c(Cl)c1 [Example 7, N-(5-Chloro-6-(2H-1,2,3-triazol-2-yl)pyridin-3-yl)-5-cyano-3,4-dihydroquinoline-1 (2H)-carboxamide] | 1.2 µM | 6.9 µM
CC1(C)CN(C(=O)Nc2cnc(-n3nccn3)c(Cl)c2)c2cncc(C3CC3)c2O1 [Example 24, N-(5-Chloro-6-(2H-1,2,3-triazol-2-yl)pyridin-3-yl)-8-cyclopropyl-2,2-dimethyl-2,3-dihydro-4H-pyrido[4,3-b][1,4]oxazine-4-carboxamide] | 0.34 µM | 2.5 µM
O=C(Nc1cnc(-n2nccn2)c(Cl)c1)N1CC2(CCOC2)Oc2c(Br)cncc21 (centres unmarked) [Example 27, 8′—Bromo-N-(5-chloro-6-(2H-1,2,3-triazol-2-yl)pyridin-3-yl)-4,5-dihydro-2H-spiro [furan-3,2′-pyrido[4,3-b][1,4]oxazine]-4′ (3′H)-carboxamide] | 0.9 µM | 5 µM
CC1CN(C(=O)Nc2cnc(-n3nccn3)c(C(F)(F)F)c2)c2cccc(Br)c2O1 (centres unmarked) [Example 5, N-(6-(2H-1,2,3-Triazol-2-yl)-5-(trifluoromethyl)pyridin-3-yl)-8-bromo-2-methyl-2,3-dihydro-4H-benzo[b][1,4]oxazine-4-carboxamide] | 0.12 µM | 3.3 µM
CN1c2c(Br)cncc2N(C(=O)Nc2cnc(-n3nccn3)c(Cl)c2)CC1(C)C [Example 31, 8-Bromo-N-(5-chloro-6-(2H-1,2,3-triazol-2-yl)pyridin-3-yl)-1,2,2-trimethyl-2,3-dihydropyrido[3,4-b]pyrazine-4 (1H)-carboxamide] | 0.26 µM | 3 µM
O=C(Nc1cnc(-n2nccn2)c(Cl)c1)N1CC(C(F)(F)F)Oc2c(Br)cncc21 (centres unmarked) [Example 38, 8-Bromo-N-(5-chloro-6-(2H-1,2,3-triazol-2-yl)pyridin-3-yl)-2-(trifluoromethyl)-2,3-dihydro-4H-pyrido[4,3-b][1,4]oxazine-4-carboxamide] | 0.12 µM | 0.73 µM
O=C(Nc1cnc(-n2nccn2)c(Cl)c1)N1CCCc2c(Br)cncc21 [Example 17, 5-Bromo-N-(5-chloro-6-(2H-1,2,3-triazol-2-yl)pyridin-3-yl)-3,4-dihydro-1,7-naphthyridine-1 (2H)-carboxamide] | 1.5 µM | 0.5 µM
